This is an account of results in patent publication US7700624B2, “3-aminocyclopentanecrboxamides as modulators of chemokine receptors” (Incyte Corporation, priority 2005, dated 2010).

This assay concerns the target T1, CCR2 (Homo sapiens, UniProt P41597).
T1 construct: Peripheral Blood Mononuclear Cells (PBMCs) prepared from normal human whole blood via density gradient centrifugation; endogenous in cells; host or cells: human PBMCs from normal whole blood
T1 sequence (P41597 1-360 isoform P41597-2): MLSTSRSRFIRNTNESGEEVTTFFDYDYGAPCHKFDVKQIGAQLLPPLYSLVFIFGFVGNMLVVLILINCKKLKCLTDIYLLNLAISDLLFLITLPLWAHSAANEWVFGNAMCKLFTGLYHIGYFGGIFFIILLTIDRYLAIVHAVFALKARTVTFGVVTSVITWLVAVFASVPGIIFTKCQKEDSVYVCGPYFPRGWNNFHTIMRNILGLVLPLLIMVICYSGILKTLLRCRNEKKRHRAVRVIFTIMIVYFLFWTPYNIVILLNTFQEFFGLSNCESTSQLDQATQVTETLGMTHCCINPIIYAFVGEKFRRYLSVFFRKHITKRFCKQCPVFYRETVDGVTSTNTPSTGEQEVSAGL
The experiment in a line: CCR2 binding assay: 125I-labeled MCP-1 binding to human PBMCs. The following applies: inhibition of specific binding of 0.1 to 0.2 nM 125I-labeled MCP-1 to human PBMCs, 30 min at room temperature. From the text: The CCR2 antagonist activity of compounds of the invention can be reported as the inhibitor concentration required for 50% inhibition (IC50 values) of specific binding in receptor binding assays using ^125I-labeled MCP-1, as ligand, and Peripheral Blood Mononuclear Cells (PBMCs) prepared from normal human whole blood via density gradient centrifugation. Specific binding is preferably defined as the total binding (e.g., total cpm on filters) minus the non-specific binding. Non-specific binding is defined as the amount of cpm still detected in the presence of excess unlabeled competitor (e.g., MCP-1).
Human PBMCs are used to test compounds of the invention in a binding assay. For example, 200,000 to 500,000 cells are incubated with 0.1 to 0.2 nM ^125I-labeled MCP-1, with or without unlabeled competitor (10 nM MCP-1) or various concentrations of compounds to be tested. ^125I-labeled MCP-1, are prepared by suitable methods or purchased from commercial vendors (Perkin Elmer, Boston Mass.). The binding reactions are performed in 50 to 250 μL of a binding buffer consisting of […] pH 7.2, and 0.1% BSA (bovine serum albumin), for 30 min at room temperature. The binding reactions are terminated by harvesting the membranes by rapid filtration through glass fiber filters (Perkin Elmer) which is presoaked in 0.3% polyethyleneimine or Phosphate Buffered Saline (PBS). The filters were rinsed with approximately 600 μL of binding buffer containing 0.5 M NaCl or PBS, then dried, and the amount of bound radioactivity is determined by counting on a Gamma Counter (Perkin Elmer).

`CC1OCCC1N[C@@H]1CC[C@@](C(=O)N2CCN(c3cc(C(F)(F)F)ccn3)CC2)(C(C)C)C1` (stereo partly drawn) [Example 20, 2,5-anhydro-1,3,4-trideoxy-3-{[(1R,3S)-3-isopropyl-3-({4-[4-(trifluoromethyl)pyridin-2-yl]piperazin-1-yl}carbonyl)cyclopentyl]amino}pentitol]: the concentration for half-maximal inhibition (IC50) was 80.6 nM.

Regarding `CC(C)[C@]1(C(=O)N2CCN(c3cc(C(F)(F)F)ccn3)CC2)CC[C@@H](NCc2cnc3c(c2)NC(=O)CO3)C1` [Example 9, 7-({[(1R,3S)-3-isopropyl-3-({4-[4-(trifluoromethyl)pyridin-2-yl]piperazin-1-yl}carbonyl)cyclopentyl]amino}methyl)-1H-pyrido[23-b][14]oxazin-2(3H)-one], the IC50 is 338 nM.

For the compound `CC(C)NC(=O)CCC1CCCC1N[C@@H]1CC[C@@](C(=O)N2CCN(c3cc(C(F)(F)F)ccn3)CC2)(C(C)C)C1` (stereo partly drawn) [Example 13, N-isopropyl-3-(2-{[(1R,3S)-3-isopropyl-3-({4-[4-(trifluoromethyl)pyridin-2-yl]piperazin-1-yl}carbonyl)cyclopentyl]amino}cyclopentyl)propanamide], the IC50 was 273 nM.

The compound `CC(C)[C@]1(C(=O)N2CCN(c3cc(C(F)(F)F)ccn3)CC2)CC[C@@H](NC2CCc3cc(F)cc(F)c3C2)C1` (mixture of isomers) [Example 18, 6,8-difluoro-N-[(1R,3S)-3-isopropyl-3-({4-[4-(trifluoromethyl)pyridin-2-yl]piperazin-1-yl}carbonyl)cyclopentyl]-1234-tetrahydronaphthalen-2-amine] registered a half-maximal inhibitory concentration (IC50) of 51.7 nM.

The compound `CC#CCN1CCC(N[C@@H]2CC[C@@](C(=O)N3CCN(c4cc(C(F)(F)F)ccn4)CC3)(C(C)C)C2)CCC1=O` (mixture of isomers) [Example 12, 1-but-2-yn-1-yl-5-{[(1R,3S)-3-isopropyl-3-({4-[4-(trifluoromethyl)pyridin-2-yl]piperazin-1-yl}carbonyl)cyclopentyl]amino}azepan-2-one] showed a 50% inhibitory concentration (IC50) of 660 nM.

For the compound `CC(C)[C@]1(C(=O)N2CCN(c3cc(C(F)(F)F)ccn3)CC2)CC[C@@H](NC2CCOC2)C1` (mixture of isomers) [Example 23, N-[(1R-3S)-3-isopropyl-3-({4-[4-(trifluoromethyl)pyridin-2-yl]piperazin-1-yl}carbonyl)cyclopentyl]tetrahydrofuran-3-amine], the IC50 came out at 157 nM.

Compound `CC(C)[C@]1(C(=O)N2CCN(c3cc(C(F)(F)F)ccn3)CC2)CC[C@@H](NCc2ccc3c(c2)OCC(=O)N3)C1` [Example 30, 6-({[(1R,3S)-3-isopropyl-3-({4-[4-(trifluoromethyl)pyridin-2-yl]piperazin-1-yl}carbonyl)cyclopentyl]amino}methyl)-2H-14-benzoxazin-3(4H)-one] returned an IC50 of 364 nM.

In turn, `COc1cc(CN[C@@H]2CC[C@@](C(=O)N3CCN(c4cc(C(F)(F)F)ccn4)CC3)(C(C)C)C2)ccc1C` [Example 31, (1R,3S)-3-isopropyl-N-(3-methoxy-4-methylbenzyl)-3-({4-[4-(trifluoromethyl)pyridin-2-yl]piperazin-1-yl}carbonyl)cyclopentanamine] yielded an IC50 of 334 nM.

`COc1ccc(CN[C@@H]2CC[C@@](C(=O)N3CCN(c4cc(C(F)(F)F)ccn4)CC3)(C(C)C)C2)c(OC)c1` [Example 10, (1R,3S)-N-(24-dimethoxybenzyl)-3-isopropyl-3-({4-[4-(trifluoromethyl)pyridin-2-yl]piperazin-1-yl}carbonyl)cyclopentanamine] yielded an IC50 of 519 nM. Against the preceding compound, the IC50 is about 1.6-fold higher.

In turn, `CC(C)[C@]1(C(=O)N2CCN(c3cc(C(F)(F)F)ccn3)CC2)CC[C@@H](NCc2ccc3[nH]ccc3c2)C1` [Example 26, (1R,3S)-N-(1H-indol-5-ylmethyl)-3-isopropyl-3-({4-[4-(trifluoromethyl)pyridin-2-yl]piperazin-1-yl}carbonyl)cyclopentanamine] returned a half-maximal inhibitory concentration (IC50) of 273 nM.

`COc1ccc(CN[C@@H]2CC[C@@](C(=O)N3CCN(c4cc(C(F)(F)F)ccn4)CC3)(C(C)C)C2)cc1O` [Example 29, 5-({[(1R,3S)-3-isopropyl-3-({4-[4-(trifluoromethyl)pyridin-2-yl]piperazin-1-yl}carbonyl)cyclopentyl]amino}methyl)-2-methoxyphenol] returned an IC50 of 736 nM.

In turn, `CC(C)[C@]1(C(=O)N2CCN(c3cc(C(F)(F)F)ccn3)CC2)CC[C@@H](NC2CCCN(c3ncccn3)C2)C1` (mixture of isomers) [Example 11, N-[(1R,3S)-3-isopropyl-3-({4-[4-(trifluoromethyl)pyridin-2-yl]piperazin-1-yl}carbonyl)cyclopentyl]-1-pyrimidin-2-ylpiperidin-3-amine] gave an IC50 of 420 nM.

As to `CC(C)[C@]1(C(=O)N2CCN(c3cc(C(F)(F)F)ccn3)CC2)CC[C@@H](NC2CCC(O)(c3ccc(-c4ncccn4)cn3)CC2)C1` (stereo partly shown) [Example 1, 4-{[(1R3S)-3-isopropyl-3-({4-[4-(trifluoromethyl)pyridin-2-yl]piperazin-1-yl}carbonyl)cyclopentyl]amino}-1-(5-pyrimidin-2-ylpyridin-2-yl)cyclohexanol], the IC50 turned out to be 19.8 nM.

`CC(C)[C@]1(C(=O)N2CCN(c3cc(C(F)(F)F)ccn3)CC2)CC[C@@H](NCc2ccc(Cl)s2)C1` [Example 5, (1R,3S)-N-[(5-chloro-2-thienyl)methyl]-3-isopropyl-3-({4-[4-(trifluoromethyl)pyridin-2-yl]piperazin-1-yl}carbonyl)cyclopentanamine] had an IC50 of 616 nM.

With `COc1ccc(CN[C@@H]2CC[C@@](C(=O)N3CCN(c4cc(C(F)(F)F)ccn4)CC3)(C(C)C)C2)cc1OC` [Example 25, (1R,3S)-N-(34-dimethoxybenzyl)-3-isopropyl-3-({4-[4-(trifluoromethyl)pyridin-2-yl]piperazin-1-yl}carbonyl)cyclopentanamine], the concentration for half-maximal inhibition (IC50) worked out at 500 nM.

For `CC(C)[C@]1(C(=O)N2CCN(c3cc(C(F)(F)F)ccn3)CC2)CC[C@@H](NCc2ccc(F)cc2)C1` [Example 28, (1R,3S)-N-(4-fluorobenzyl)-3-isopropyl-3-({4-[4-(trifluoromethyl)pyridin-2-yl]piperazin-1-yl}carbonyl)cyclopentanamine], the 50% inhibitory concentration (IC50) came to 389 nM. The IC50 values of the last two compounds are within 1.5-fold of each other.

Turning to `CC(C)[C@]1(C(=O)N2CCN(c3cc(C(F)(F)F)ccn3)CC2)CC[C@@H](NC2Cc3ccccc3C2)C1` [Example 14, N-[(1R,3S)-3-isopropyl-3-({4-[4-(trifluoromethyl)pyridin-2-yl]piperazin-1-yl}carbonyl)cyclopentyl]indan-2-amine], the half-maximal inhibitory concentration (IC50) came out at 74.8 nM.

In the case of `CC(C)[C@]1(C(=O)N2CCN(c3cc(C(F)(F)F)ccn3)CC2)CC[C@@H](NC2CCCC2)C1` [Example 16, (1R,3S)-N-cyclopentyl-3-isopropyl-3-({4-[4-(trifluoromethyl)pyridin-2-yl]piperazin-1-yl}carbonyl)cyclopentanamine], the IC50 is 227 nM.

`CC(C)[C@]1(C(=O)N2CCN(c3cc(C(F)(F)F)ccn3)CC2)CC[C@@H](NC2CCS(=O)(=O)CC2)C1` [Example 15, N-[(1R-3S)-3-isopropyl-3-({4-[4-(trifluoromethyl)pyridin-2-yl]piperazin-1-yl}carbonyl)cyclopentyl]tetrahydro-2H-thiopyran-4-amine 11-dioxide] registered an IC50 of 541 nM.

For the compound `CC(C)[C@]1(C(=O)N2CCN(c3cc(C(F)(F)F)ccn3)CC2)CC[C@@H](NC2CCc3ccccc3C2)C1` (mixture of isomers) [Example 19, N-[(1R,3S)-3-isopropyl-3-({4-[4-(trifluoromethyl)pyridin-2-yl]piperazin-1-yl}carbonyl)cyclopentyl]-1234-tetrahydronaphthalen-2-amine], the IC50 was determined as 138 nM.

For `CC(C)[C@]1(C(=O)N2CCN(c3cc(C(F)(F)F)ccn3)CC2)CC[C@@H](N(C)C2CCOC2)C1` (stereo partly drawn) [Example 24, N-[(1R,3S)-3-isopropyl-3-({4-[4-(trifluoromethyl)pyridin-2-yl]piperazin-1-yl}carbonyl)cyclopentyl]—N-methyltetrahydrofuran-3-amine], the half-maximal inhibitory concentration (IC50) was found to be 181 nM.

Consider `CC(CCn1cccn1)N[C@@H]1CC[C@@](C(=O)N2CCN(c3cc(C(F)(F)F)ccn3)CC2)(C(C)C)C1` (mixture of isomers) [Example 22, (1R,3S)-3-isopropyl-N-[1-methyl-3-(1H-pyrazol-1-yl)propyl]-3-({4-[4-(trifluoromethyl)pyridin-2-yl]piperazin-1-yl}carbonyl)cyclopentanamine], for which the half-inhibitory concentration (IC50) is 504 nM.
